Values after ≈ are worked out from the molar mass of the structure shown.
What was measured:
Assay type in all cases: cell-based
[1] = test system: ampicillin-sensitive E. coli strain; test: microgranular-fibrillar background in microgels stained with SYBR Gold (Example 8); conditions: 32 μg/mL, 60 minutes
Method: The experiment was conducted with a strain of ampicillin-sensitive E. coli and a strain of imipenem-sensitive A. baumanii. The first strain was incubated with 32 μg/mL ampicillin and the second strain with 0.76 μg/mL imipenem for 60 minutes in Mueller-Hinton liquid medium at 37° C. under stirring. After incubation, each culture with the cells was included in microgels on the slide. A microgel containing the antibiotic-free control culture, and 2 microgels containing the culture treated with antibiotic were placed on each slide. The size of each microgel corresponds to a 18×18 mm slide cover. The microgels on some slides were washed in a proteinase K buffer (1% SDS, 2 mM EDTA) and the microgels on other slides were washed in a DNAase I buffer (20 mM Tris-HCl, pH 8.3, 2 mM MgCl2). In the former, one of the microgels containing the culture treated with ampicillin was incubated only with a proteinase K buffer and the other microgel containing the culture treated with ampicillin was incubated with 5 μl of 2 mg/mL proteinase K, in the buffer thereof. In the slides washed with a DNAase I buffer, one of the microgels containing the culture treated with ampicillin was incubated only with a DNAase I buffer and the other microgel containing the culture treated with ampicillin was incubated with 5 μl of 2.5 U DNAase I, in the buffer thereof. […]

[2] = test system: Enterococcus faecium, ampicillin- and benzylpenicillin-resistant strain; test: MIC by microdilution and/or E-test
Text: (§1) The strains and the antibiotics used were: • Gram+ • Enterococcus faecalis.
(§2) The doses of antibiotic applied were 0, the MIC determined in the Microbiology Laboratory by means of the microdilution and/or E-test technique, and those of the cutoff points of sensitivity and resistance indicated by the Clinical and Laboratory Standards Institute (CLSI) for each strain. A dose 10 times higher than the MIC was also used.

[3] = test system: Enterococcus faecalis, ampicillin-sensitive and benzylpenicillin-resistant strain; test: MIC by microdilution and/or E-test
Text: as §1, §2

[4] = test system: ampicillin-sensitive E. coli strain; test: incubation with increasing doses of antibiotic, lysed/non-lysed cells normalized by OD 600 (persisters); conditions: 60 minutes; for Lysed Cells Relative / Non-lysed Cells Relative: normalized by OD 600
[5] = test system: Escherichia coli, ampicillin- and ceftazidime-resistant strain; test: technique for evaluating cell wall integrity (lysis solution, nucleoid release, fluorescence microscopy); conditions: 60 minutes
Method: (§3) Different bacterial strains grown on a dish with Mueller-Hinton medium for 24 hours were subsequently exposed to a β-lactam antibiotic for 60 minutes in Mueller-Hinton liquid medium at 37° C., under stirring, and were finally processed by means of the technique for evaluating cell wall integrity according to the present invention.
as §2

[6] = test system: Enterococcus faecium, ampicillin- and benzylpenicillin-resistant strain; test: as above; conditions: 320 μg/mL, 60 minutes
Method: as §3, §2

[7] = test system: Escherichia coli, ceftazidime-sensitive strain with intermediate sensitivity to ampicillin; test: as above; conditions: 60 minutes
Method: as §3, §2

[8] = test system: Enterococcus faecalis, ampicillin-sensitive and benzylpenicillin-resistant strain; test: as above; conditions: 60 minutes
Method: as §3, §2

## CC1(C)S[C@@H]2[C@H](NC(=O)[C@H](N)c3ccccc3)C(=O)N2[C@H]1C(=O)O [ampicillin]
[1]
  microgranular-fibrillar background in the preparation: showed the background
[2]
  MIC: > 32 µg/mL
[3]
  MIC: 4 µg/mL (≈ 11.4 µM)
[4]; dose 2 μg/mL
  Lysed Cells %: 90.3%
  Non-lysed Cells %: 9.7%
  OD600 (ODinitial = 0.1): 0.323
  RELATIVE OD600 %: 77.6%
  Lysed Cells Relative: 70.1
  Non-lysed Cells Relative: 7.5
[4]; dose 8 μg/mL
  Lysed Cells %: 70.6%
  Non-lysed Cells %: 29.3%
  OD600 (ODinitial = 0.1): 0.120
  RELATIVE OD600 %: 28.8%
  Lysed Cells Relative: 20.4
  Non-lysed Cells Relative: 8.5
[4]; dose 16 μg/mL
  Lysed Cells %: 37.5%
  Non-lysed Cells %: 62.5%
  OD600 (ODinitial = 0.1): 0.050
  RELATIVE OD600 %: 12.0%
  Lysed Cells Relative: 4.5
  Non-lysed Cells Relative: 7.5
[4]; dose 32 μg/mL
  Lysed Cells %: 22.5%
  Non-lysed Cells %: 77.5%
  OD600 (ODinitial = 0.1): 0.027
  RELATIVE OD600 %: 6.5%
  Lysed Cells Relative: 1.5
  Non-lysed Cells Relative: 5.0
[4]; dose 160 μg/mL
  Lysed Cells %: 15.0%
  Non-lysed Cells %: 85.0%
  OD600 (ODinitial = 0.1): 0.024
  RELATIVE OD600 %: 5.8%
  Lysed Cells Relative: 0.9
  Non-lysed Cells Relative: 4.9
[4]; over all increasing doses, according to relative OD 600
  relative proportion of non-lysed cells: 5-8.5
[5]; 256 μg/mL
  background of extracellular DNA fragments: without background
  cells lysed with nucleoid with fragmented DNA: 1%
  lysed cells: 0.5%
[5]; 2,560 μg/mL
  background of extracellular DNA fragments: subtle background
  cells lysed with nucleoid with fragmented DNA: 1.5%
  empty capsules: 4%
  heavily lysed cells: 13%
  moderately lysed cells: 5%
[6]
  background of extracellular DNA fragments: subtle background
  cells with a small halo: 2%
  heavily lysed cells: 7.5%
  lysed cells with nucleoid with fragmented DNA: 1%
  non-lysed cells: 89%
[7]; 8 μg/mL
  background of extracellular DNA fragments: extensive background
  cells lysed with nucleoid with fragmented DNA: 9%
  heavily lysed cells: 55%
[7]; 16 μg/mL (MIC)
  empty capsules: 22.6
  lysed cells with a large halo: 60.4%
  lysed cells with nucleoid with fragmented DNA: 5.7%
  non-lysed cells: 11.3%
[7]; 20 μg/mL
  cells with a large halo: 47.3%
  empty capsules: 31.2%
  lysed cells with nucleoid with fragmented DNA: 8.6%
  non-lysed cells: 12.9%
[7]; 32 and 160 μg/mL
  empty capsules: 54%
[8]; 4 μg/mL (MIC)
  background of extracellular DNA fragments: subtle background
  cells lysed with fragmented DNA: 12%
  heavily lysed cells: 35%
  moderately lysed cells: 25%
  non-lysed cells: 28%
[8]; 40 μg/mL
  background of extracellular DNA fragments: very faint
  cells lysed with fragmented DNA nucleoid: 2%
  cells with a large lysis halo: 20%
  cells with a small halo: 15%
  non-lysed cells: 63%
